Measurements reported in ChEMBL document CHEMBL1201862, “PubChem BioAssay data set” (2004).
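Interpolation was linear, between the two tested concentrations surrounding the appropriate level; five concentrations were tested over 48 hours in 96-well plates. Abbreviation: GI50, concentration required for 50% inhibition of growth.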 Calls of active or inactive are those of the source. No stated cut-off is given here; in the data, active = GI50 up to about 1.1 µM and inactive = higher.

Experiments:
Experiment in all cases: NCI anticancer screen, dose series, 48 h
SK-MEL-2 = test system: SK-MEL-2
KM12 = test system: KM12
HCT-116 = test system: HCT-116
SR = test system: SR
K562 = test system: K562
SF-539 = test system: SF-539
MOLT-4 = test system: MOLT-4
OVCAR-3 = test system: OVCAR-3
SNB-19 = test system: SNB-19
NCI-H460 = test system: NCI-H460
NCI-H522 = test system: NCI-H522
HT-29 = test system: HT-29
SF-268 = test system: SF-268
SNB-75 = test system: SNB-75
LXFL 529 = test system: LXFL 529
HCC 2998 = test system: HCC 2998
RXF 393 = test system: RXF 393
SNB-78 = test system: SNB-78
UO-31 = test system: UO-31
ACHN = test system: ACHN
SF-295 = test system: SF-295
HOP-92 = test system: HOP-92
RPMI-8226 = test system: RPMI-8226
CCRF-CEM = test system: CCRF-CEM
SK-OV-3 = test system: SK-OV-3
UACC-257 = test system: UACC-257
M19-MEL = test system: M19-MEL
COLO 205 = test system: COLO 205
A498 = test system: A498
OVCAR-4 = test system: OVCAR-4
UACC-62 = test system: UACC-62
IGROV-1 = test system: IGROV-1
DMS-114 = test system: DMS-114
M14 = test system: M14
SK-MEL-28 = test system: SK-MEL-28
NCI-H23 = test system: NCI-H23
HOP-62 = test system: HOP-62
Hs-578T = test system: Hs-578T
OVCAR-8 = test system: OVCAR-8
KM-20L2 = test system: KM-20L2
BT-549 = test system: BT-549
NCI/ADR-RES = test system: NCI/ADR-RES
DMS-273 = test system: DMS-273
MDA-MB-435 = test system: MDA-MB-435
MDA-N = test system: MDA-N
TK-10 = test system: TK-10
DLD-1 = test system: DLD-1
LOX IMVI = test system: LOX IMVI
786-0 = test system: 786-0
HCT-15 = test system: HCT-15
SK-MEL-5 = test system: SK-MEL-5
EKVX = test system: EKVX
PC-3 = test system: PC-3
HOP-18 = test system: HOP-18
Malme-3M = test system: Malme-3M

**Q.** With `COc1cc2ccc1NC(=O)N1CCN(CC1)C(=O)Nc1ccc(cc1OC)-c1ccc(c(OC)c1)NC(=O)N1CCN(CC1)C(=O)Nc1ccc-2cc1OC` as the compound, how does the GI50 (SK-MEL-2) read?
**A.** Its GI50 is > 100 µM (inactive).

**Q.** What about the GI50 (KM12) of the same compound?
**A.** The GI50 was > 100 µM (inactive).

**Q.** And the GI50 (HCT-116)?
**A.** The GI50 was > 100 µM (inactive).

**Q.** And the GI50 (SR)?
**A.** Its GI50 is > 100 µM (inactive).

**Q.** What about the GI50 (K562) of the same compound?
**A.** The GI50 was > 100 µM (inactive).

**Q.** What about the GI50 (SF-539) of the same compound?
**A.** Its GI50 is > 100 µM (inactive).

**Q.** And the GI50 (MOLT-4)?
**A.** The GI50 was > 100 µM (inactive).

**Q.** And the GI50 (OVCAR-3)?
**A.** Its GI50 is > 100 µM (inactive).

**Q.** What about the GI50 (SNB-19) of the same compound?
**A.** The GI50 was > 100 µM (inactive).

**Q.** What about the GI50 (NCI-H460) of the same compound?
**A.** Its GI50 is > 100 µM (inactive).

**Q.** And the GI50 (NCI-H522)?
**A.** The GI50 was > 100 µM (inactive).

**Q.** And the GI50 (HT-29)?
**A.** Its GI50 is > 100 µM (inactive).

**Q.** And the GI50 (SF-268)?
**A.** Its GI50 is > 100 µM (inactive).

**Q.** What about the GI50 (SNB-75) of the same compound?
**A.** The GI50 was > 100 µM (inactive).

**Q.** And the GI50 (LXFL 529)?
**A.** Its GI50 is > 100 µM (inactive).

**Q.** And the GI50 (HCC 2998)?
**A.** Its GI50 is > 100 µM (inactive).

**Q.** And the GI50 (RXF 393)?
**A.** The GI50 was > 100 µM (inactive).

**Q.** What about the GI50 (SNB-78) of the same compound?
**A.** Its GI50 is > 100 µM (inactive).

**Q.** What about the GI50 (UO-31) of the same compound?
**A.** Its GI50 is > 100 µM (inactive).

**Q.** And the GI50 (ACHN)?
**A.** Its GI50 is > 100 µM (inactive).

**Q.** And the GI50 (SF-295)?
**A.** Its GI50 is > 100 µM (inactive).

**Q.** And the GI50 (HOP-92)?
**A.** Its GI50 is > 100 µM (inactive).

**Q.** What about the GI50 (RPMI-8226) of the same compound?
**A.** The GI50 was > 100 µM (inactive).

**Q.** What about the GI50 (CCRF-CEM) of the same compound?
**A.** The GI50 was > 100 µM (inactive).

**Q.** What about the GI50 (SK-OV-3) of the same compound?
**A.** The GI50 was > 100 µM (inactive).

**Q.** And the GI50 (UACC-257)?
**A.** The GI50 was > 100 µM (inactive).

**Q.** What about the GI50 (M19-MEL) of the same compound?
**A.** Its GI50 is > 100 µM (inactive).

**Q.** And the GI50 (COLO 205)?
**A.** The GI50 was > 100 µM (inactive).

**Q.** And the GI50 (A498)?
**A.** The GI50 was > 100 µM (inactive).

**Q.** What about the GI50 (OVCAR-4) of the same compound?
**A.** Its GI50 is > 100 µM (inactive).

**Q.** What about the GI50 (UACC-62) of the same compound?
**A.** The GI50 was > 100 µM (inactive).

**Q.** What about the GI50 (IGROV-1) of the same compound?
**A.** The GI50 was > 100 µM (inactive).

**Q.** And the GI50 (DMS-114)?
**A.** The GI50 was > 100 µM (inactive).

**Q.** What about the GI50 (M14) of the same compound?
**A.** Its GI50 is > 100 µM (inactive).

**Q.** What about the GI50 (SK-MEL-28) of the same compound?
**A.** Its GI50 is > 100 µM (inactive).

**Q.** What about the GI50 (NCI-H23) of the same compound?
**A.** The GI50 was > 100 µM (inactive).

**Q.** What about the GI50 (HOP-62) of the same compound?
**A.** The GI50 was > 100 µM (inactive).

**Q.** For `CO[C@H]1C[C@@H]2CC[C@@H](C)[C@@](O)(O2)C(=O)C(=O)N2CCCC[C@H]2C(=O)O[C@H]([C@H](C)C[C@@H]2CC[C@@H](O)[C@H](OC)C2)CC(=O)[C@H](C)C=C(C)[C@@H](O)[C@@H](OC)C(=O)[C@H](C)C[C@H](C)/C=C/C=C/C=C1C`, which GI50 (Hs-578T) is on record?
**A.** The GI50 was 0.0193 µM (active).

**Q.** What about the GI50 (KM12) of the same compound?
**A.** Its GI50 is 5.96 µM (inactive).

**Q.** And the GI50 (OVCAR-8)?
**A.** Its GI50 is 0.0564 µM (active).

**Q.** And the GI50 (HCT-116)?
**A.** Its GI50 is 5.71 µM (inactive).

**Q.** What about the GI50 (SR) of the same compound?
**A.** The GI50 was < 0.01 µM (active).

**Q.** What about the GI50 (KM-20L2) of the same compound?
**A.** The GI50 was 16 µM (inactive).

**Q.** What about the GI50 (BT-549) of the same compound?
**A.** Its GI50 is 1.12 µM (inactive).

**Q.** What about the GI50 (NCI/ADR-RES) of the same compound?
**A.** Its GI50 is 0.358 µM (active).

**Q.** And the GI50 (SF-539)?
**A.** The GI50 was < 0.0111 µM (active).

**Q.** And the GI50 (MOLT-4)?
**A.** The GI50 was 0.0272 µM (active).

**Q.** And the GI50 (DMS-273)?
**A.** The GI50 was 11 µM (inactive).

**Q.** And the GI50 (MDA-MB-435)?
**A.** The GI50 was 1.28 µM (inactive).

**Q.** What about the GI50 (NCI-H522) of the same compound?
**A.** The GI50 was 1.34 µM (inactive).

**Q.** And the GI50 (HT-29)?
**A.** Its GI50 is 0.817 µM (active).

**Q.** What about the GI50 (SF-268) of the same compound?
**A.** Its GI50 is 1.77 µM (inactive).

**Q.** And the GI50 (MDA-N)?
**A.** Its GI50 is 1.56 µM (inactive).

**Q.** And the GI50 (TK-10)?
**A.** The GI50 was 0.46 µM (active).

**Q.** What about the GI50 (DLD-1) of the same compound?
**A.** The GI50 was 10 µM (inactive).

**Q.** What about the GI50 (HCC 2998) of the same compound?
**A.** Its GI50 is 0.167 µM (active).

**Q.** What about the GI50 (SNB-78) of the same compound?
**A.** The GI50 was 0.1 µM (active).

**Q.** And the GI50 (UO-31)?
**A.** The GI50 was < 0.01 µM (active).

**Q.** What about the GI50 (CCRF-CEM) of the same compound?
**A.** The GI50 was < 0.01 µM (active).

**Q.** What about the GI50 (LOX IMVI) of the same compound?
**A.** Its GI50 is 0.0175 µM (active).

**Q.** And the GI50 (786-0)?
**A.** Its GI50 is 0.108 µM (active).

**Q.** And the GI50 (HCT-15)?
**A.** Its GI50 is 0.117 µM.

**Q.** And the GI50 (SK-MEL-5)?
**A.** Its GI50 is 0.417 µM (active).

**Q.** What about the GI50 (M19-MEL) of the same compound?
**A.** The GI50 was 0.1 µM (active).

**Q.** And the GI50 (COLO 205)?
**A.** Its GI50 is 8.24 µM (inactive).

**Q.** And the GI50 (OVCAR-4)?
**A.** Its GI50 is < 0.01 µM (active).

**Q.** What about the GI50 (EKVX) of the same compound?
**A.** Its GI50 is < 0.0104 µM (active).

**Q.** And the GI50 (PC-3)?
**A.** Its GI50 is 0.0211 µM (active).

**Q.** What about the GI50 (IGROV-1) of the same compound?
**A.** Its GI50 is < 0.01 µM (active).

**Q.** And the GI50 (DMS-114)?
**A.** Its GI50 is 0.1 µM (active).

**Q.** What about the GI50 (M14) of the same compound?
**A.** The GI50 was 7.55 µM (inactive).

**Q.** And the GI50 (SK-MEL-28)?
**A.** Its GI50 is 0.251 µM (active).

**Q.** What about the GI50 (HOP-18) of the same compound?
**A.** Its GI50 is 11.8 µM (inactive).

**Q.** What about the GI50 (NCI-H23) of the same compound?
**A.** Its GI50 is 0.394 µM (active).

**Q.** And the GI50 (Malme-3M)?
**A.** Its GI50 is 0.0243 µM (active).

**Q.** And the GI50 (HOP-62)?
**A.** Its GI50 is < 0.0107 µM (active).
